Several values for one entry are separate records, joined by “and”; a condition that tells them apart may be missing. Equal values may be shown once. Inconclusive results and toxic doses are left out. Cut-off read from the data, not from the text of the source: active = T/C of 150% or more; inactive = T/C below 125%.
Test system: L1210 leukemia ip in BDF1 mice, survival T/C
Assay: NCI In Vivo Anticancer Drug Screen. Data for tumor model L1210 Leukemia (intraperitoneal) in B6D2F1 (BDF1) mice
Conditions: endpoint: mean survival time, higher = longer survival
Method in brief: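 Ratio derived from survival: compound-dosed mice over vehicle-dosed mice, all bearing a transplantable tumor.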

[1] = dose: 100.0 mg/kg/injection, schedule: Q01DX001 (ip), vehicle: carboxymethylcellulose (CMC)
[2] = dose: 200.0 mg/kg/injection, schedule: Q01DX001 (ip), vehicle: carboxymethylcellulose (CMC)
[3] = dose: 50.0 mg/kg/injection, schedule: Q01DX001 (ip), vehicle: saline
[4] = dose: 100.0 mg/kg/injection, schedule: Q01DX001 (ip), vehicle: saline
[5] = dose: 200.0 mg/kg/injection, schedule: Q01DX001 (ip), vehicle: saline
[6] = dose: 100.0 mg/kg/injection, schedule: Q01DX009 (ip), vehicle: saline with Tween-80
[7] = dose: 100.0 mg/kg/injection, schedule: Q04DX003 (ip), vehicle: saline with Tween-80
[8] = dose: 200.0 mg/kg/injection, schedule: Q01DX009 (ip), vehicle: saline with Tween-80
[9] = dose: 200.0 mg/kg/injection, schedule: Q04DX003 (ip), vehicle: saline with Tween-80
[10] = dose: 400.0 mg/kg/injection, schedule: Q01DX001 (ip), vehicle: saline
[11] = dose: 400.0 mg/kg/injection, schedule: Q01DX009 (ip), vehicle: saline with Tween-80
[12] = dose: 400.0 mg/kg/injection, schedule: Q04DX003 (ip), vehicle: saline with Tween-80
[13] = dose: 100.0 mg/kg/injection, schedule: Q04DX003 (ip), vehicle: saline sonified
[14] = dose: 200.0 mg/kg/injection, schedule: Q04DX003 (ip), vehicle: saline sonified
[15] = dose: 400.0 mg/kg/injection, schedule: Q04DX003 (ip), vehicle: saline sonified
[16] = dose: 100.0 mg/kg/injection, schedule: Q01DX009 (ip), vehicle: Klucel (hydroxypropylcellulose) (HPC)
[17] = dose: 100.0 mg/kg/injection, schedule: Q04DX003 (ip), vehicle: Klucel (hydroxypropylcellulose) (HPC)
[18] = dose: 200.0 mg/kg/injection, schedule: Q04DX003 (ip), vehicle: Klucel (hydroxypropylcellulose) (HPC)
[19] = dose: 400.0 mg/kg/injection, schedule: Q04DX003 (ip), vehicle: Klucel (hydroxypropylcellulose) (HPC)

Measured: T/C

Cc1cc(OC(=O)Nc2ccc(F)cc2)c(C(C)C)cc1Cl
inactive: dose: 50.0 mg/kg/injection, schedule: Q01DX001 (ip), vehicle: carboxymethylcellulose (CMC) 90 % of control | dose: 50.0 mg/kg/injection, schedule: Q01DX009 (ip), vehicle: carboxymethylcellulose (CMC) 99 % of control and 101 % of control | dose: 50.0 mg/kg/injection, schedule: Q04DX002 (ip), vehicle: carboxymethylcellulose (CMC) 93 % of control and 96 % of control | [1] 103 % of control | dose: 100.0 mg/kg/injection, schedule: Q01DX009 (ip), vehicle: carboxymethylcellulose (CMC) 96 % of control and 99 % of control | dose: 100.0 mg/kg/injection, schedule: Q04DX002 (ip), vehicle: carboxymethylcellulose (CMC) 100 % of control and 106 % of control | [2] 92 % of control | dose: 200.0 mg/kg/injection, schedule: Q01DX009 (ip), vehicle: carboxymethylcellulose (CMC) 94 % of control and 95 % of control | dose: 200.0 mg/kg/injection, schedule: Q04DX002 (ip), vehicle: carboxymethylcellulose (CMC) 95 % of control and 100 % of control

Cc1cc(N(CCCl)CCCl)ccc1C=NC1CCCC1
inactive: [1] 102 % of control | [2] 105 % of control | dose: 400.0 mg/kg/injection, schedule: Q01DX001 (ip), vehicle: carboxymethylcellulose (CMC) 118 % of control

Cc1cc2nncn2c2ccccc12
inactive: [3] 103 % of control | [4] 101 % of control | [5] 101 % of control

CC(=O)N(O)CCCC1NC(=O)C(CCCN(O)C(C)=O)NC1=O (stereo not given)
inactive: [4] 97 % of control | [6] 100 % of control | [7] 92 % of control | [5] 95 % of control | [8] 102 % of control | [9] 92 % of control | [10] 95 % of control | [11] 105 % of control | [12] 100 % of control

CC(NC(=O)C1CC2c3cccc4[nH]cc(c34)CC2N(C)C1)C(C)(C)C (stereo not given)
inactive: dose: 20.0 mg/kg/injection, schedule: Q01DX001 (ip), vehicle: Klucel (hydroxypropylcellulose) (HPC) 96 % of control | dose: 40.0 mg/kg/injection, schedule: Q01DX001 (ip), vehicle: Klucel (hydroxypropylcellulose) (HPC) 101 % of control | dose: 80.0 mg/kg/injection, schedule: Q01DX001 (ip), vehicle: Klucel (hydroxypropylcellulose) (HPC) 104 % of control

CCCN(CCC)C(=S)[S-].CCCN(CCC)C(=S)[S-].[Zn]
inactive: [13] 100 % of control | [14] 91 % of control | [15] 86 % of control

COc1ccc(-n2c(=O)c(N=Nc3ccc(Br)cc3)c(O)n(-c3ccccc3OC)c2=S)cc1
inactive: dose: 50.0 mg/kg/injection, schedule: Q01DX001 (ip), vehicle: Klucel (hydroxypropylcellulose) (HPC) 106 % of control | dose: 100.0 mg/kg/injection, schedule: Q01DX001 (ip), vehicle: Klucel (hydroxypropylcellulose) (HPC) 103 % of control | dose: 200.0 mg/kg/injection, schedule: Q01DX001 (ip), vehicle: Klucel (hydroxypropylcellulose) (HPC) 103 % of control

CCCCCCCC[n+]1cccc(C#N)c1
inactive: dose: 18.75 mg/kg/injection, schedule: Q01DX009 (ip), vehicle: saline 104 % of control | dose: 37.5 mg/kg/injection, schedule: Q01DX009 (ip), vehicle: saline 91 % of control | dose: 37.5 mg/kg/injection, schedule: Q04DX003 (ip), vehicle: acetone 97 % of control | dose: 75.0 mg/kg/injection, schedule: Q01DX001 (ip), vehicle: saline 91 % of control | dose: 75.0 mg/kg/injection, schedule: Q01DX009 (ip), vehicle: saline 93 % of control | dose: 75.0 mg/kg/injection, schedule: Q04DX003 (ip), vehicle: acetone 97 % of control | dose: 150.0 mg/kg/injection, schedule: Q01DX001 (ip), vehicle: saline 95 % of control | dose: 150.0 mg/kg/injection, schedule: Q04DX003 (ip), vehicle: acetone 95 % of control

CNc1cc(N)ncn1
inactive: dose: 25.0 mg/kg/injection, schedule: Q01DX Z (ip), vehicle: saline 90 % of control | dose: 75.0 mg/kg/injection, schedule: Q01DX Z (ip), vehicle: saline 93 % of control

CC(C)(C)CC(C)(C)N(CSc1ccc(Cl)cc1)CSc1ccc(Cl)cc1
inactive: [4] 100 % of control | [5] 93 % of control | [10] 87 % of control

CCCCC(CC)COC(=O)CCC(CCC(=O)OCC(CC)CCCC)C(=O)OCC(CC)CCCC (stereo not given)
inactive: [13] 98 % of control | [14] 104 % of control | [15] 96 % of control

Cc1cccc(Nc2cc(N)nc(N)n2)c1
inactive: dose: 50.0 mg/kg/injection, schedule: Q01DX Z (ip), vehicle: methylcellulose (MC) 96 % of control

CC(C)=CCN(CC=C(C)C)CCC(C#N)(c1ccc2ccccc2c1)C(C)C (stereo not given)
inactive: dose: 50.0 mg/kg/injection, schedule: Q01DX009 (ip), vehicle: Klucel (hydroxypropylcellulose) (HPC) 106 % of control | [16] 95 % of control | [17] 102 % of control | [18] 98 % of control

Nc1cc(Cl)cc2c1-c1c(Cl)cc(Cl)cc1C2
inactive: [16] 102 % of control | [17] 96 % of control | [18] 104 % of control | dose: 400.0 mg/kg/injection, schedule: Q01DX009 (ip), vehicle: Klucel (hydroxypropylcellulose) (HPC) 102 % of control | [19] 104 % of control

CCOC(=O)C(C)(C)CO
inactive: [14] 103 % of control | [15] 93 % of control | dose: 800.0 mg/kg/injection, schedule: Q04DX003 (ip), vehicle: saline sonified 101 % of control

Nc1ccc(/C=C/c2ccnc3ccccc23)cc1
inactive: dose: 0.5 mg/kg/injection, schedule: Q01DX015 (ip), vehicle: saline 101 % of control | dose: 1.0 mg/kg/injection, schedule: Q01DX015 (ip), vehicle: saline 101 % of control | dose: 2.0 mg/kg/injection, schedule: Q01DX015 (ip), vehicle: saline 101 % of control | dose: 4.0 mg/kg/injection, schedule: Q01DX015 (ip), vehicle: saline 101 % of control | [3] 95 % of control | [4] 97 % of control | [5] 95 % of control | [10] 105 % of control

C[n+]1ccsc1
inactive: [7] 104 % of control | [9] 103 % of control | [12] 97 % of control

Clc1nc2ncn3ncnc3c2[nH]1
inactive: dose: 100.0 mg/kg/injection, schedule: Q01DX001 (ip), vehicle: saline with Tween-80 104 % of control | dose: 200.0 mg/kg/injection, schedule: Q01DX001 (ip), vehicle: saline with Tween-80 101 % of control | dose: 400.0 mg/kg/injection, schedule: Q01DX001 (ip), vehicle: saline with Tween-80 92 % of control

CC1(C)C2CCC(C2)C1C(=O)O (stereo not given)
inactive: [7] 95 % of control | [9] 91 % of control | [12] 100 % of control

Clc1ccc2[nH]ncc2c1
inactive: dose: 100.0 mg/kg/injection, schedule: Q04DX002 (ip), vehicle: Klucel (hydroxypropylcellulose) (HPC) 88 % of control | dose: 200.0 mg/kg/injection, schedule: Q04DX002 (ip), vehicle: Klucel (hydroxypropylcellulose) (HPC) 98 % of control | dose: 400.0 mg/kg/injection, schedule: Q04DX002 (ip), vehicle: Klucel (hydroxypropylcellulose) (HPC) 98 % of control

NC(=O)Nc1ccc(Cl)cc1
inactive: [6] 101 % of control | [17] 99 % of control | [8] 96 % of control | [18] 91 % of control | [19] 102 % of control

NC(=O)CCC(N)C(=O)O (stereo not given)
inactive: dose: 6.25 mg/kg/injection, schedule: Q01DX009 (ip), vehicle: saline 108 % of control | [6] 97 % of control | [7] 94 % of control | [8] 90 % of control | [9] 93 % of control | [11] 93 % of control | [12] 96 % of control

O=C1OC(=O)C2C1C1(Cl)C(Cl)=C(Cl)C2(Cl)C2C(=O)OC(=O)C21 (stereo not given)
inactive: dose: 100.0 mg/kg/injection, schedule: Q01DX009 (ip), vehicle: saline 94 % of control | dose: 100.0 mg/kg/injection, schedule: Q04DX003 (ip), vehicle: saline 95 % of control | dose: 200.0 mg/kg/injection, schedule: Q01DX009 (ip), vehicle: saline 90 % of control | dose: 200.0 mg/kg/injection, schedule: Q04DX003 (ip), vehicle: saline 95 % of control | dose: 400.0 mg/kg/injection, schedule: Q01DX009 (ip), vehicle: saline 91 % of control | dose: 400.0 mg/kg/injection, schedule: Q04DX003 (ip), vehicle: saline 95 % of control
